Test results from PubChem BioAssay (NCI).
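96-well plates; 48 h exposure; 5 concentrations. Endpoints by linear interpolation between flanking doses. Not reached: highest tested concentration assigned. TGI denotes the concentration required for complete inhibition of growth.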

Experiments:
Test in all cases: NCI-60 cell line screen, 48 h
COLO 205 colon = system: COLO 205 colon
T-47D breast = system: T-47D breast
SN12C renal = system: SN12C renal
SF-539 CNS = system: SF-539 CNS
KM12 colon = system: KM12 colon
RPMI-8226 leukemia = system: RPMI-8226 leukemia
OVCAR-3 ovarian = system: OVCAR-3 ovarian
MCF7 breast = system: MCF7 breast
SK-MEL-5 melanoma = system: SK-MEL-5 melanoma
EKVX NSCLC = system: EKVX NSCLC
RXF 393 renal = system: RXF 393 renal
CCRF-CEM leukemia = system: CCRF-CEM leukemia
SF-295 CNS = system: SF-295 CNS
K-562 leukemia = system: K-562 leukemia
HOP-62 NSCLC = system: HOP-62 NSCLC
A498 renal = system: A498 renal
HCT-15 colon = system: HCT-15 colon
OVCAR-8 ovarian = system: OVCAR-8 ovarian
OVCAR-5 ovarian = system: OVCAR-5 ovarian
SNB-75 CNS = system: SNB-75 CNS
HCT-116 colon = system: HCT-116 colon
HS 578T breast = system: HS 578T breast
MALME-3M melanoma = system: MALME-3M melanoma
MOLT-4 leukemia = system: MOLT-4 leukemia
SNB-19 CNS = system: SNB-19 CNS
SW-620 colon = system: SW-620 colon
PC-3 prostate = system: PC-3 prostate
NCI-H23 lung = system: NCI-H23 lung
HCC-2998 colon = system: HCC-2998 colon
A549 NSCLC = system: A549 NSCLC
MDA-N = system: MDA-N
ACHN renal = system: ACHN renal
UACC-257 melanoma = system: UACC-257 melanoma
NCI-H522 lung = system: NCI-H522 lung
U251 CNS = system: U251 CNS
LOX IMVI melanoma = system: LOX IMVI melanoma
SF-268 CNS = system: SF-268 CNS
UACC-62 melanoma = system: UACC-62 melanoma
786-0 renal = system: 786-0 renal
HOP-92 NSCLC = system: HOP-92 NSCLC
NCI/ADR-RES ovarian = system: NCI/ADR-RES ovarian
MDA-MB-435 = system: MDA-MB-435
SK-MEL-2 melanoma = system: SK-MEL-2 melanoma
DU-145 prostate = system: DU-145 prostate
OVCAR-4 ovarian = system: OVCAR-4 ovarian
HL-60(TB) leukemia = system: HL-60(TB) leukemia
TK-10 renal = system: TK-10 renal
HT29 colon = system: HT29 colon
NCI-H460 lung = system: NCI-H460 lung
SK-MEL-28 melanoma = system: SK-MEL-28 melanoma
M14 melanoma = system: M14 melanoma
BT-549 breast = system: BT-549 breast
IGROV1 ovarian = system: IGROV1 ovarian
UO-31 renal = system: UO-31 renal
CAKI-1 renal = system: CAKI-1 renal
NCI-H226 lung = system: NCI-H226 lung
SK-OV-3 ovarian = system: SK-OV-3 ovarian
SR leukemia = system: SR leukemia
MDA-MB-231 breast = system: MDA-MB-231 breast

For `CCOC(=O)Cn1nnc2ccc(Nc3nc4ccccc4nc3-c3ccccc3)cc21`, the TGI (COLO 205 colon) was greater than 100 µM, the TGI (T-47D breast) was greater than 100 µM and the TGI (SN12C renal) was greater than 100 µM. It also gave a TGI (SF-539 CNS) greater than 100 µM, a TGI (KM12 colon) greater than 100 µM and a TGI (RPMI-8226 leukemia) greater than 100 µM. It also gave a TGI (OVCAR-3 ovarian) greater than 100 µM, a TGI (MCF7 breast) greater than 100 µM and a TGI (SK-MEL-5 melanoma) greater than 100 µM. It also gave a TGI (EKVX NSCLC) greater than 100 µM, a TGI (RXF 393 renal) greater than 100 µM and a TGI (CCRF-CEM leukemia) greater than 100 µM. It also gave a TGI (SF-295 CNS) greater than 100 µM, a TGI (K-562 leukemia) greater than 100 µM and a TGI (HOP-62 NSCLC) greater than 100 µM. For the same compound, the TGI (A498 renal) was greater than 100 µM, the TGI (HCT-15 colon) was greater than 100 µM and the TGI (OVCAR-8 ovarian) was greater than 100 µM. For the same compound, the TGI (OVCAR-5 ovarian) was greater than 100 µM, the TGI (SNB-75 CNS) was 99.1 µM and the TGI (HCT-116 colon) was greater than 100 µM. The TGI (HS 578T breast) was greater than 100 µM, the TGI (MALME-3M melanoma) was greater than 100 µM and the TGI (MOLT-4 leukemia) was greater than 100 µM. For the same compound, the TGI (SNB-19 CNS) was greater than 100 µM, the TGI (SW-620 colon) was greater than 100 µM and the TGI (PC-3 prostate) was greater than 100 µM. For the same compound, the TGI (NCI-H23 lung) was greater than 100 µM, the TGI (HCC-2998 colon) was 66.4 µM and the TGI (A549 NSCLC) was greater than 100 µM. It also gave a TGI (MDA-N) greater than 100 µM, a TGI (ACHN renal) greater than 100 µM and a TGI (UACC-257 melanoma) greater than 100 µM. The TGI (NCI-H522 lung) was greater than 100 µM, the TGI (U251 CNS) was greater than 100 µM and the TGI (LOX IMVI melanoma) was greater than 100 µM. It also gave a TGI (SF-268 CNS) greater than 100 µM, a TGI (UACC-62 melanoma) greater than 100 µM and a TGI (786-0 renal) greater than 100 µM. The TGI (HOP-92 NSCLC) was greater than 100 µM, the TGI (NCI/ADR-RES ovarian) was greater than 100 µM and the TGI (MDA-MB-435) was greater than 100 µM. It also gave a TGI (SK-MEL-2 melanoma) greater than 100 µM, a TGI (DU-145 prostate) of 31.8 µM and a TGI (OVCAR-4 ovarian) greater than 100 µM. For the same compound, the TGI (HL-60(TB) leukemia) was greater than 100 µM, the TGI (TK-10 renal) was 62.5 µM and the TGI (HT29 colon) was greater than 100 µM. The TGI (NCI-H460 lung) was greater than 100 µM, the TGI (SK-MEL-28 melanoma) was greater than 100 µM and the TGI (M14 melanoma) was greater than 100 µM. For the same compound, the TGI (BT-549 breast) was greater than 100 µM, the TGI (IGROV1 ovarian) was greater than 100 µM and the TGI (UO-31 renal) was 14.5 µM. The TGI (CAKI-1 renal) was greater than 100 µM, the TGI (NCI-H226 lung) was greater than 100 µM and the TGI (SK-OV-3 ovarian) was greater than 100 µM. For the same compound, the TGI (SR leukemia) was greater than 100 µM.
Work on `O=C1Cc2c([nH]c3ccc(C(=O)O)cc23)-c2ccccc2N1` yielded a TGI (COLO 205 colon) greater than 100 µM, a TGI (T-47D breast) greater than 100 µM and a TGI (SN12C renal) greater than 100 µM. It also gave a TGI (SF-539 CNS) greater than 100 µM, a TGI (KM12 colon) greater than 100 µM and a TGI (RPMI-8226 leukemia) greater than 100 µM. It also gave a TGI (OVCAR-3 ovarian) greater than 100 µM, a TGI (MCF7 breast) greater than 100 µM and a TGI (CCRF-CEM leukemia) greater than 100 µM. The TGI (SF-295 CNS) was greater than 100 µM, the TGI (K-562 leukemia) was greater than 100 µM and the TGI (HOP-62 NSCLC) was greater than 100 µM. It also gave a TGI (A498 renal) greater than 100 µM, a TGI (HCT-15 colon) greater than 100 µM and a TGI (OVCAR-8 ovarian) greater than 100 µM. It also gave a TGI (OVCAR-5 ovarian) greater than 100 µM, a TGI (HCT-116 colon) greater than 100 µM and a TGI (HS 578T breast) greater than 100 µM. For the same compound, the TGI (MALME-3M melanoma) was greater than 100 µM, the TGI (MOLT-4 leukemia) was greater than 100 µM and the TGI (SNB-19 CNS) was greater than 100 µM. It also gave a TGI (SW-620 colon) greater than 100 µM, a TGI (PC-3 prostate) greater than 100 µM and a TGI (MDA-MB-231 breast) greater than 100 µM. The TGI (NCI-H23 lung) was greater than 100 µM, the TGI (HCC-2998 colon) was greater than 100 µM and the TGI (A549 NSCLC) was greater than 100 µM. For the same compound, the TGI (MDA-N) was greater than 100 µM, the TGI (ACHN renal) was greater than 100 µM and the TGI (UACC-257 melanoma) was greater than 100 µM. It also gave a TGI (U251 CNS) greater than 100 µM, a TGI (LOX IMVI melanoma) greater than 100 µM and a TGI (SF-268 CNS) greater than 100 µM. For the same compound, the TGI (UACC-62 melanoma) was greater than 100 µM, the TGI (786-0 renal) was greater than 100 µM and the TGI (HOP-92 NSCLC) was greater than 100 µM. The TGI (NCI/ADR-RES ovarian) was greater than 100 µM, the TGI (MDA-MB-435) was greater than 100 µM and the TGI (SK-MEL-2 melanoma) was greater than 100 µM. The TGI (DU-145 prostate) was greater than 100 µM, the TGI (OVCAR-4 ovarian) was greater than 100 µM and the TGI (HL-60(TB) leukemia) was greater than 100 µM. It also gave a TGI (TK-10 renal) greater than 100 µM, a TGI (HT29 colon) greater than 100 µM and a TGI (NCI-H460 lung) greater than 100 µM. It also gave a TGI (SK-MEL-28 melanoma) greater than 100 µM, a TGI (M14 melanoma) greater than 100 µM and a TGI (BT-549 breast) greater than 100 µM. The TGI (IGROV1 ovarian) was greater than 100 µM, the TGI (UO-31 renal) was greater than 100 µM and the TGI (CAKI-1 renal) was greater than 100 µM. The TGI (NCI-H226 lung) was greater than 100 µM, the TGI (SK-OV-3 ovarian) was greater than 100 µM and the TGI (SR leukemia) was greater than 100 µM.
`O=C(O)c1ccccc1NC(=S)c1ccccc1` was tested, and the TGI (COLO 205 colon) was greater than 100 µM, the TGI (T-47D breast) was greater than 100 µM and the TGI (SN12C renal) was greater than 100 µM. For the same compound, the TGI (SF-539 CNS) was greater than 100 µM, the TGI (KM12 colon) was greater than 100 µM and the TGI (RPMI-8226 leukemia) was 75.8 µM. It also gave a TGI (OVCAR-3 ovarian) greater than 100 µM, a TGI (MCF7 breast) greater than 100 µM and a TGI (SK-MEL-5 melanoma) greater than 100 µM. It also gave a TGI (EKVX NSCLC) greater than 100 µM, a TGI (RXF 393 renal) greater than 100 µM and a TGI (CCRF-CEM leukemia) greater than 100 µM. For the same compound, the TGI (SF-295 CNS) was greater than 100 µM, the TGI (K-562 leukemia) was greater than 100 µM and the TGI (HOP-62 NSCLC) was greater than 100 µM. For the same compound, the TGI (A498 renal) was greater than 100 µM, the TGI (HCT-15 colon) was greater than 100 µM and the TGI (OVCAR-8 ovarian) was greater than 100 µM. It also gave a TGI (OVCAR-5 ovarian) greater than 100 µM, a TGI (HCT-116 colon) greater than 100 µM and a TGI (HS 578T breast) greater than 100 µM. For the same compound, the TGI (MALME-3M melanoma) was 65.9 µM, the TGI (MOLT-4 leukemia) was greater than 100 µM and the TGI (SNB-19 CNS) was greater than 100 µM. The TGI (SW-620 colon) was greater than 100 µM, the TGI (PC-3 prostate) was greater than 100 µM and the TGI (MDA-MB-231 breast) was greater than 100 µM. The TGI (NCI-H23 lung) was greater than 100 µM, the TGI (HCC-2998 colon) was 0.0159 µM and the TGI (A549 NSCLC) was greater than 100 µM. The TGI (MDA-N) was greater than 100 µM, the TGI (ACHN renal) was 84.6 µM and the TGI (UACC-257 melanoma) was greater than 100 µM. It also gave a TGI (NCI-H522 lung) of 39.8 µM, a TGI (U251 CNS) greater than 100 µM and a TGI (LOX IMVI melanoma) greater than 100 µM. For the same compound, the TGI (SF-268 CNS) was greater than 100 µM, the TGI (UACC-62 melanoma) was greater than 100 µM and the TGI (786-0 renal) was greater than 100 µM. The TGI (HOP-92 NSCLC) was 44.1 µM, the TGI (NCI/ADR-RES ovarian) was greater than 100 µM and the TGI (MDA-MB-435) was greater than 100 µM. It also gave a TGI (DU-145 prostate) greater than 100 µM, a TGI (OVCAR-4 ovarian) of 29 µM and a TGI (HL-60(TB) leukemia) of 98.3 µM. For the same compound, the TGI (TK-10 renal) was greater than 100 µM, the TGI (HT29 colon) was greater than 100 µM and the TGI (NCI-H460 lung) was greater than 100 µM. The TGI (M14 melanoma) was greater than 100 µM, the TGI (BT-549 breast) was greater than 100 µM and the TGI (IGROV1 ovarian) was 98.9 µM. It also gave a TGI (UO-31 renal) greater than 100 µM, a TGI (CAKI-1 renal) greater than 100 µM and a TGI (SK-OV-3 ovarian) greater than 100 µM.
